Assay results reported in patent US20080004302A1, “Novel Compounds” (ASTRAZENECA AB, priority 2006, published 2008).
Where a name gives a salt, the structure may show the parent alone.

Experiments:
FGFR1 IIIc = biological target: T1, FGFR1 IIIc (Homo sapiens, UniProt P11362); test: Cell based inhibition of transiently expressed FGFR1 IIIc phosphorylation via use of ECHO technology (Cos-1 cells); settings: Cos-1 cells, phospho-FGFR1, ECHO dosing; upper bound of bin; read-out: IC50
T1 construct: host or cells: Cos-1
Protocol: This assay is designed to detect inhibitors of transiently expressed FGFR1 phosphorylation by antibody staining of fixed cells detected using ArrayScan technology.
To undertake the assay, Cos-1 cells were harvested at 90-95% confluence for cell transfection. For each 96-well plate, 24μl Lipofectamine 2000 was added to 809 ul OptiMEM and incubated at room temperature for 5 minutes. […] Equal volumes of DNA and Lipofectamine 2000 were combined (DNA: Lipid=1:1.2 ratio) and incubated at room temperature for 20 minutes.
The harvested Cos-1 cells are counted using a coulter counter and diluted further with 1% FCS/DMEM to 2.5×10^5 cells/ml. For each 96-well, 8.33 ml cells were required. […] 70 μl of media was aspirated from the assay plate using the Quadra before the plate was transferred onto the ECHO 550. […] Compound transfer to the assay plate on the ECHO 550 was at concentration ranges 1)10 μM, 2) 3 μM, 3) 1 μM, 4) 0.3 μM, 5) 0.1 μM, 6) […].
The plates were gently tapped to mix compound in with the cell media and left to incubate at 37° C. with 5% CO2 for 1 hour.
Media was removed from the wells using vacuum aspiration; cells were fixed by adding 50 μl of 100% methanol to each well and incubated at room temperature for 20 minutes.
The plates were read on an Arrayscan (Cellomics).

FGFR1 kinase = FGFR1 kinase (Homo sapiens, UniProt P11362); test: Kinase assay (using Caliper technology); type: biochemical; settings: FGFR1 kinase, Caliper; upper bound of bin; read-out: IC50
Protocol: To determine inhibition of FGFR activity, kinase assays were conducted using Caliper technology.
Kinase activity assays were performed in Greiner 384-well low volume plates, with a total reaction volume of 12ul per well. […] The substrate for each assay was a custom peptide with fluorescent tag (13 amino acids in length) the sequence of which was specific for FGFR1 kinase.
Compounds were serially diluted in 5% (v/v) DMSO, before being added to assay plates.
Assay plates were incubated at room temperature for 1.5 h, before the reaction was stopped with the addition of buffer [comprising: 100 mM HEPES—pH7.5, 0.033% Brij-35, 0.22% Caliper Coating Reagent #3, 88mM EDTA, 5% DMSO]. Stopped assay plates were then read using the Caliper LabChip® LC3000 (which uses microfludics to measure a shift in mobility between fluorescent labelled peptide and the FGFR1 kinase—phosphorylated form of this peptide).

human IGF1R = biological target: T2, human IGF1R (Homo sapiens, UniProt P08069); test: Inhibition of insulin-like growth factor-1 receptor phosphorylation in R+ cells; type: cell-based; settings: 30 nM IGF1, read-out: IGF cell class
T2 construct: expressed in transfected cells; host or cells: R+ cells (R- mouse fibroblasts transfected with human IGF1R)
Protocol: This immunofluorescence end point cell assay measures the ability of a test compound to reduce the measured levels of IGF1R phosphorylation after IGF1 stimulation in R^+ cells. […] were derived by transfection of R^− mouse fibroblast cells with human IGF1R.
(+5% CO2) incubator for 30 minutes.
Following the compound treatment, the R^+ cells were stimulated with a final concentration of 30 nM IGF1 (Gropep 1M001) for 20 minutes at 37° C. […] Plates were incubated for 1 hour at room temperature. […] Additionally, in-house antibodies raised against phospho […] were also used at a suitable titre determined for each batch.
The plates were incubated at room temperature for one hour. […] After addition of 100 μl/well PBS the plates were sealed with a black seal.
The Green Fluorescent phospho IGF1R -associated signal in each well was measured using an Acumen Explorer HTS Reader (TTP Labtech Ltd., Cambridge). […] The instrument is a laser-scanning fluorescence microplate cytometer, which samples the well at regular intervals and uses threshold algorithms to identify all fluorescent intensities above the solution background without the need to generate and analyse an image. These fluorescent objects can be quantified and provide a measure of the phospho IGF1R levels in cells. Fluorescence dose response data obtained with each compound was exported into a suitable software package (such as Origin) to perform curve fitting analysis. Phospho-IGF1R levels in response to compound treatment versus stimulated and unstimulated controls were expressed as an IC50 value.

Sequence of FGFR1 kinase (P11362 22-822): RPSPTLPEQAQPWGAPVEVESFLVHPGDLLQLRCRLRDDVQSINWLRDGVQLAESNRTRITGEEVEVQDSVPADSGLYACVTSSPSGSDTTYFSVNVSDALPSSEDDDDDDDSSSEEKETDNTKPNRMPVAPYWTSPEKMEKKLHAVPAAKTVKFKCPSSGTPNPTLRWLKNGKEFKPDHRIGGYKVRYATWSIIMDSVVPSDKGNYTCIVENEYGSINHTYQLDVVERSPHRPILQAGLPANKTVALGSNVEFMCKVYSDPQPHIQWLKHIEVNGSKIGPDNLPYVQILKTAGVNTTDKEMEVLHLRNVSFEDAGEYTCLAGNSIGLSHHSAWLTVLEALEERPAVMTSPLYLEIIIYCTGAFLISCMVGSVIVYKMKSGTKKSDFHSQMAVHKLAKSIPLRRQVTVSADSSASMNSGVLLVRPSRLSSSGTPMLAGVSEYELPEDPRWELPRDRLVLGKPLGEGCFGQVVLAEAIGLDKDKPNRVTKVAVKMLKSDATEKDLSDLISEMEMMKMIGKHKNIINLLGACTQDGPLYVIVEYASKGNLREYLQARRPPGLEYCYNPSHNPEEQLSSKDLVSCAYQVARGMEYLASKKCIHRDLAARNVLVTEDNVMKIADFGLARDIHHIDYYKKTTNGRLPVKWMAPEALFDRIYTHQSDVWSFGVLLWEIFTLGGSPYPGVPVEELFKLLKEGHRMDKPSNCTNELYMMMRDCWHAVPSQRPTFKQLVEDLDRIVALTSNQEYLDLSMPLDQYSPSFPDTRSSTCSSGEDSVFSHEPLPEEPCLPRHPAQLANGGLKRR
T1 sequence (P11362 22-822): as above
T2 sequence (P08069 31-1367): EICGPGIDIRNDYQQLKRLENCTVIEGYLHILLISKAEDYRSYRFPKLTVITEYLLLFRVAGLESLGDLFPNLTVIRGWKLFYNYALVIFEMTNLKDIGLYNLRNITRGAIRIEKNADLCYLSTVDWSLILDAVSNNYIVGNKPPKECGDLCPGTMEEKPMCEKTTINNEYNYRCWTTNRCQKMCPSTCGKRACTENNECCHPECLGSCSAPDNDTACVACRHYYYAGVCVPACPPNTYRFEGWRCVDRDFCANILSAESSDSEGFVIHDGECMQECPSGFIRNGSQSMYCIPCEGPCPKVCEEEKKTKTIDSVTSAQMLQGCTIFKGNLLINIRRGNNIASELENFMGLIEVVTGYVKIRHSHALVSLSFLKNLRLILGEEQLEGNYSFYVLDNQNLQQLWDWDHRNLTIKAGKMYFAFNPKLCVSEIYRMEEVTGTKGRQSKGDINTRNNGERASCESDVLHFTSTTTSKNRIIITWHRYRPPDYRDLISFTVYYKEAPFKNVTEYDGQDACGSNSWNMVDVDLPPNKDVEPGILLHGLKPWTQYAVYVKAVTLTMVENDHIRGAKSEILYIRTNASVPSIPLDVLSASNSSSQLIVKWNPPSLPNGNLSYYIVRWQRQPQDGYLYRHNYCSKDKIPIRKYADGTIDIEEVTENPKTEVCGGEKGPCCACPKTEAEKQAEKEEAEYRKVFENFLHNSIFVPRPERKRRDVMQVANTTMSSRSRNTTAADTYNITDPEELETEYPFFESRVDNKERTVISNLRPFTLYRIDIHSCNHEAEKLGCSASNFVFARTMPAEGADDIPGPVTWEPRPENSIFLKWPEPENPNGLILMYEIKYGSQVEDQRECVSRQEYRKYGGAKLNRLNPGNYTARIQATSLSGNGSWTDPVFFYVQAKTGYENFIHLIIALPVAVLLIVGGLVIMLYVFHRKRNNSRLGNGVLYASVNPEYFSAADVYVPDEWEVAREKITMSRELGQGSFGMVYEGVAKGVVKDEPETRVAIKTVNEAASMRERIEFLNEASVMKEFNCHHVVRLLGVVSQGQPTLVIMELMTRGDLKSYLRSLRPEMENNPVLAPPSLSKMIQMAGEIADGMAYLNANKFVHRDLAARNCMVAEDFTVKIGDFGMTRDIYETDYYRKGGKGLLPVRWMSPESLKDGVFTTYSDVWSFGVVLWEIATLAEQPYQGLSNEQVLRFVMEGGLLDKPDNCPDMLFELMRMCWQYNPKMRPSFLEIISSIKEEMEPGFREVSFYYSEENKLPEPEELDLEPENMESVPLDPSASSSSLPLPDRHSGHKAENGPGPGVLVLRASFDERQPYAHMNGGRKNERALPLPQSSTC

SMILES | IC50 (FGFR1 IIIc) | IC50 (FGFR1 kinase) | IC50 (human IGF1R)
COc1cc(COc2cc(Nc3ccnc(NCc4cc(C)no4)n3)n[nH]2)c(F)cn1 [Example 135, N′-[5-[(5-fluoro-2-methoxy-pyridin-4-yl)methoxy]-1H-pyrazol-3-yl]-N-[(3-methyl-1,2-oxazol-5-yl)methyl]pyrimidine-2,4-diamine] | < 1000 nM | < 200 nM | –
Cc1cc(CNc2nccc(Nc3cc(CCc4cccc(Oc5ncccn5)c4)[nH]n3)n2)on1 [Example 133, N-[(3-methyl-1,2-oxazol-5-yl)methyl]-N′-[5-[2-(3-pyrimidin-2-yloxyphenyl)ethyl]-1H-pyrazol-3-yl]pyrimidine-2,4-diamine hydrochloride] | < 10000 nM | < 200 nM | –
COc1cc(CCc2cc(Nc3ccnc(NCc4cc(CN(C)C)no4)n3)n[nH]2)c(F)cn1 [Example 136, N-[[3-(dimethylaminomethyl)-1,2-oxazol-5-yl]methyl]-N′-[5-[2-(5-fluoro-2-methoxy-pyridin-4-yl)ethyl]-1H-pyrazol-3-yl]pyrimidine-2,4-diamine] | < 10000 nM | < 1000 nM | –
COc1cc(CCc2cc(Nc3ccnc(NCc4cc(C)no4)n3)n[nH]2)cc(NC(C)=O)c1 [Example 139, N-[3-methoxy-5-[2-[5-[[2-[(3-methyl-1,2-oxazol-5-yl)methylamino]pyrimidin-4-yl]amino]-2H-pyrazol-3-yl]ethyl]phenyl]acetamide] | < 30000 nM | – | –
COc1ncc(CCc2cc(Nc3ccnc(NCc4cc(C)no4)n3)n[nH]2)s1 [Example 130, N′-[5-[2-(2-methoxy-1,3-thiazol-5-yl)ethyl]-1H-pyrazol-3-yl]-N-[(3-methyl-1,2-oxazol-5-yl)methyl]pyrimidine-2,4-diamine] | < 10000 nM | < 1000 nM | –
COc1cc(Cl)cc(CCc2cc(Nc3ccnc(NCc4cc(C(N)=O)no4)n3)[nH]n2)c1 [Example 126, 5-[[[4-[[5-[2-(3-chloro-5-methoxy-phenyl)ethyl]-2H-pyrazol-3-yl]amino]pyrimidin-2-yl]amino]methyl]-1,2-oxazole-3-carboxamide] | < 200 nM | < 200 nM | –
COc1ccc(CCc2cc(Nc3ccnc(NCc4cc(C)no4)n3)n[nH]2)s1 [Example 129, N′-[5-[2-(5-methoxythiophen-2-yl)ethyl]-1H-pyrazol-3-yl]-N-[(3-methyl-1,2-oxazol-5-yl)methyl]pyrimidine-2,4-diamine] | < 1000 nM | < 10000 nM | –
CC(C)Oc1cccc(CCc2cc(Nc3ccnc(NCc4cc(C(N)=O)no4)n3)n[nH]2)c1 [Example 140, 5-[[[4-[[5-[2-(3-propan-2-yloxyphenyl)ethyl]-1H-pyrazol-3-yl]amino]pyrimidin-2-yl]amino]methyl]-1,2-oxazole-3-carboxamide] | < 10000 nM | – | –
Cc1cc(CNc2nccc(Nc3cc(CCc4cccc(N)c4)[nH]n3)n2)on1 [Example 125, N′-[5-[2-(3-aminophenyl)ethyl]-1H-pyrazol-3-yl]-N-[(3-methyl-1,2-oxazol-5-yl)methyl]pyrimidine-2,4-diamine] | < 1000 nM | < 200 nM | –
CNC(=O)c1cc(CCc2cc(Nc3ccnc(NCc4cc(C)no4)n3)n[nH]2)cc(OC)c1 [Example 132, 3-Methoxy-N-methyl-5-[2-[5-[[2-[(3-methyl-1,2-oxazol-5-yl)methylamino]pyrimidin-4-yl]amino]-1H-pyrazol-3-yl]ethyl]benzamide] | < 1000 nM | < 200 nM | –
COc1cncc(CCc2cc(Nc3ccnc(NCc4cc(CN(C)C)no4)n3)n[nH]2)c1 [Example 127, N-[[3-(dimethylaminomethyl)-1,2-oxazol-5-yl]methyl]-N′-[5-[2-(5-methoxypyridin-3-yl)ethyl]-1H-pyrazol-3-yl]pyrimidine-2,4-diamine] | < 30000 nM | < 1000 nM | –
Cc1cc(CNc2nccc(Nc3cc(CCc4cccc(OC(C)C)c4)[nH]n3)n2)on1 [Example 122, N-[(3-methyl-1,2-oxazol-5-yl)methyl]-N′-[5-[2-(3-propan-2-yloxyphenyl)ethyl]-1H-pyrazol-3-yl]pyrimidine-2,4-diamine] | < 1000 nM | < 1000 nM | –
CNC(=O)c1cc(OC)cc(CCc2cc(Nc3ccnc(NCc4cc(C)no4)n3)n[nH]2)n1 [Example 143, 4-Methoxy-N-methyl-6-[2-[5-[[2-[(3-methyl-1,2-oxazol-5-yl)methylamino]pyrimidin-4-yl]amino]-1H-pyrazol-3-yl]ethyl]pyridine-2-carboxamide] | < 30000 nM | < 10000 nM | –
COc1cc(C)cc(COc2cc(Nc3ccnc(NCc4cc(C)no4)n3)n[nH]2)c1 [Example 131, N′-[5-[(3-methoxy-5-methyl-phenyl)methoxy]-1H-pyrazol-3-yl]-N-[(3-methyl-1,2-oxazol-5-yl)methyl]pyrimidine-2,4-diamine] | < 200 nM | < 200 nM | –
Cc1cc(CNc2nccc(Nc3cc(CCc4cccc(=O)[nH]4)[nH]n3)n2)on1 [Example 134, 6-[2-[5-[[2-[(3-methyl-1,2-oxazol-5-yl)methylamino]pyrimidin-4-yl]amino]-2H-pyrazol-3-yl]ethyl]-1H-pyridin-2-one dihydrochloride] | < 30000 nM | < 10000 nM | –
COCC(C)Oc1cc(Nc2ccnc(NCc3cc(C)no3)n2)n[nH]1 (centres unmarked) [Example 75, N′-[5-(1-methoxypropan-2-yloxy)-1H-pyrazol-3-yl]-N-[(3-methyl-1,2-oxazol-5-yl)methyl]pyrimidine-2,4-diamine] | – | < 10000 nM | > 10000 nM
COc1cncc(CCc2cc(Nc3ccnc(NCc4cc(C)no4)n3)n[nH]2)c1 [Example 138, N′-[5-[2-(5-methoxypyridin-3-yl)ethyl]-1H-pyrazol-3-yl]-N-[(3-methyl-1,2-oxazol-5-yl)methyl]pyrimidine-2,4-diamine] | < 10000 nM | < 1000 nM | –
CCOc1ccc(COc2cc(Nc3ccnc(NCc4cc(C)no4)n3)n[nH]2)cc1OC [Example 99, N′-[5-[(4-ethoxy-3-methoxy-phenyl)methoxy]-1H-pyrazol-3-yl]-N-[(3-methyl1,2-oxazol-5-yl)methyl]pyrimidine-2,4-diamine] | – | < 10000 nM | > 10000 nM
COCCCc1cc(Nc2ccnc(NCc3cc(C4CC4)no3)n2)n[nH]1 [Example 18, N-[(3-cyclopropyl-1,2-oxazol-5-yl)methyl]-N′-[5-(3-methoxypropyl)-2H-pyrazol-3-yl]pyrimidine-2,4-diamine] | – | – | 1000 to 10000 nM
COc1cc(CCc2cc(Nc3ccnc(NCc4cc(C)no4)n3)n[nH]2)cc(OC)n1 [Example 124, N′-[5-[2-(2,6-dimethoxypyridin-4-yl)ethyl]-1H-pyrazol-3-yl]-N-[(3-methyl-1,2-oxazol-5-yl)methyl]pyrimidine-2,4-diamine] | < 200 nM | < 200 nM | –
COc1ccnc(COc2cc(Nc3ccnc(NCc4cc(C)no4)n3)n[nH]2)c1 [Example 137, N′-[5-[(4-methoxypyridin-2-yl)methoxy]-1H-pyrazol-3-yl]-N-[(3-methyl-1,2-oxazol-5-yl)methyl]pyrimidine-2,4-diamine] | < 30000 nM | < 1000 nM | –
CNC(=O)c1cccc(CCc2cc(Nc3ccnc(NCc4cc(C)no4)n3)n[nH]2)c1 [Example 141, N-methyl-3-[2-[5-[[2-[(3-methyl-1,2-oxazol-5-yl)methylamino]pyrimidin-4-yl]amino]-1H-pyrazol-3-yl]ethyl]benzamide] | < 1000 nM | < 200 nM | –
